Reference: PubChem BioAssay AID330 (DTP/NCI, 2004)
Several values for one entry are separate records, joined by “and”; a condition that tells them apart may be missing. Equal values may be shown once. Inconclusive results and toxic doses are left out. Rule for the calls: active = survival T/C of 150% or more; inactive = T/C below 125% in these data.

System: P388 leukemia ip, CD2F1 mice, survival T/C
Assay: NCI In Vivo Anticancer Drug Screen. Data for tumor model P388 Leukemia (intraperitoneal) in CD2F1 (CDF1) mice
Details: endpoint: median survival time, higher = longer survival
In short: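 Mice carrying the transplanted tumor received test compound or vehicle. Survival was recorded in each group, and the value is the treated-group measurement divided by that of the vehicle-treated control group.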

[1] = dose: 100.0 mg/kg/injection, schedule: Q01DX009 (ip), vehicle: Klucel (hydroxypropylcellulose) (HPC)
[2] = dose: 200.0 mg/kg/injection, schedule: Q01DX009 (ip), vehicle: Klucel (hydroxypropylcellulose) (HPC)
[3] = dose: 50.0 mg/kg/injection, schedule: Q01DX005 (ip), vehicle: Klucel (hydroxypropylcellulose) (HPC)
[4] = dose: 100.0 mg/kg/injection, schedule: Q01DX005 (ip), vehicle: Klucel (hydroxypropylcellulose) (HPC)
[5] = dose: 200.0 mg/kg/injection, schedule: Q01DX005 (ip), vehicle: Klucel (hydroxypropylcellulose) (HPC)
[6] = dose: 50.0 mg/kg/injection, schedule: Q04DX003 (ip), vehicle: saline with Tween-80
[7] = dose: 100.0 mg/kg/injection, schedule: Q04DX003 (ip), vehicle: saline with Tween-80
[8] = dose: 50.0 mg/kg/injection, schedule: Q01DX009 (ip), vehicle: saline
[9] = dose: 100.0 mg/kg/injection, schedule: Q01DX009 (ip), vehicle: saline
[10] = dose: 60.0 mg/kg/injection, schedule: Q01DX005 (ip), vehicle: Klucel (hydroxypropylcellulose) (HPC)
[11] = dose: 120.0 mg/kg/injection, schedule: Q01DX005 (ip), vehicle: Klucel (hydroxypropylcellulose) (HPC)
[12] = dose: 240.0 mg/kg/injection, schedule: Q01DX005 (ip), vehicle: Klucel (hydroxypropylcellulose) (HPC)
[13] = dose: 12.5 mg/kg/injection, schedule: Q01DX005 (ip), vehicle: Klucel (hydroxypropylcellulose) (HPC)
[14] = dose: 25.0 mg/kg/injection, schedule: Q01DX005 (ip), vehicle: Klucel (hydroxypropylcellulose) (HPC)
[15] = dose: 50.0 mg/kg/injection, schedule: Q01DX009 (ip), vehicle: saline with Tween-80
[16] = dose: 100.0 mg/kg/injection, schedule: Q01DX009 (ip), vehicle: saline with Tween-80
[17] = dose: 200.0 mg/kg/injection, schedule: Q01DX009 (ip), vehicle: saline with Tween-80

Measured: T/C

Cc1cc2nncn2c2nnnn12
inactive: dose: 6.25 mg/kg/injection, schedule: Q01DX005 (ip), vehicle: water 101 % of control | dose: 12.5 mg/kg/injection, schedule: Q01DX005 (ip), vehicle: water 102 % of control | dose: 25.0 mg/kg/injection, schedule: Q01DX005 (ip), vehicle: water 108 % of control | dose: 50.0 mg/kg/injection, schedule: Q01DX005 (ip), vehicle: water 108 % of control | dose: 100.0 mg/kg/injection, schedule: Q01DX005 (ip), vehicle: water 105 % of control | dose: 200.0 mg/kg/injection, schedule: Q01DX005 (ip), vehicle: water 101 % of control

CC(C)(Oc1ccc(-c2cccc3ccccc23)cc1)C(=O)O
inactive: dose: 6.25 mg/kg/injection, schedule: Q01DX009 (ip), vehicle: Klucel (hydroxypropylcellulose) (HPC) 97 % of control | dose: 12.5 mg/kg/injection, schedule: Q01DX009 (ip), vehicle: Klucel (hydroxypropylcellulose) (HPC) 95 % of control | dose: 25.0 mg/kg/injection, schedule: Q01DX009 (ip), vehicle: Klucel (hydroxypropylcellulose) (HPC) 101 % of control | [1] 111 % of control | [2] 119 % of control

O.O=C(O)CN(CCN(CC(=O)O)CC(=O)O)CC(=O)O.[Rh+2]
inactive: dose: 100.0 mg/kg/injection, schedule: Q01DX009 (ip), vehicle: saline sonified 90 % of control | dose: 200.0 mg/kg/injection, schedule: Q01DX009 (ip), vehicle: saline sonified 90 % of control | dose: 400.0 mg/kg/injection, schedule: Q01DX009 (ip), vehicle: saline sonified 95 % of control

O=S(=O)(O)CN1CCN(CCN(CS(=O)(=O)O)CS(=O)(=O)O)CC1
inactive: [3] 100 % of control | [4] 100 % of control | [5] 96 % of control

O=c1ccc2ccc(OC3OC(CO)C(O)C(O)C3O)cc2o1 (stereo not drawn)
inactive: dose: 1.0 mg/kg/injection, schedule: Q01DX009 (ip), vehicle: saline with Tween-80 106 % of control | dose: 2.0 mg/kg/injection, schedule: Q01DX009 (ip), vehicle: saline with Tween-80 100 % of control | dose: 4.0 mg/kg/injection, schedule: Q01DX009 (ip), vehicle: saline with Tween-80 104 % of control

C=C1CCC2C(C)(C(=O)O)CCCC2(C)C1CCc1ccoc1 (stereo not drawn)
inactive: dose: 12.75 mg/kg/injection, schedule: Q01DX005 (ip), vehicle: Klucel + Tween-80 102 % of control | dose: 25.5 mg/kg/injection, schedule: Q01DX005 (ip), vehicle: Klucel + Tween-80 96 % of control | dose: 51.0 mg/kg/injection, schedule: Q01DX005 (ip), vehicle: Klucel + Tween-80 110 % of control | dose: 102.0 mg/kg/injection, schedule: Q01DX005 (ip), vehicle: Klucel + Tween-80 110 % of control

O=C1C2C[C@@H]3c4ccccc4N[C@@H]3N2C(=O)C2CCCN12 (stereo partly drawn)
inactive: [3] 97 % of control | [4] 102 % of control | [5] 94 % of control

COC(=O)C1=C(OC)C(C(=O)c2ccccc2)NC1=O (stereo not drawn)
inactive: dose: 60.0 mg/kg/injection, schedule: Q01DX005 (ip), vehicle: saline with Tween-80 111 % of control | dose: 120.0 mg/kg/injection, schedule: Q01DX005 (ip), vehicle: saline with Tween-80 100 % of control | dose: 240.0 mg/kg/injection, schedule: Q01DX005 (ip), vehicle: saline with Tween-80 99 % of control

CCC[CH2][Sn]1([CH2]CCC)[O]OC2(CCCCC2)[O]1
inactive: dose: 1.25 mg/kg/injection, schedule: Q01DX009 (ip), vehicle: saline with Tween-80 113 % of control | dose: 2.5 mg/kg/injection, schedule: Q01DX009 (ip), vehicle: saline with Tween-80 109 % of control

CC(C)CSC(C)C
inactive: [6] 100 % of control | [7] 104 % of control | dose: 200.0 mg/kg/injection, schedule: Q04DX003 (ip), vehicle: saline with Tween-80 100 % of control

CCC[CH2][Sn]([CH2]CCC)([CH2]CCC)[CH2]CCCNCCCN(C)C
inactive: [8] 97 % of control | [9] 100 % of control

CC(=O)OC1CSc2ccccc2N(C(C)=O)C1 (stereo not drawn)
inactive: [10] 104 % of control | [11] 99 % of control | [12] 107 % of control

COc1ccc2nc(C)c(C)nc2c1Cl
inactive: [3] 98 % of control | [4] 100 % of control | [5] 95 % of control

O=[N+]([O-])c1cc2[nH]cnc2c([N+](=O)[O-])c1N1CCCCC1
inactive: dose: 25.0 mg/kg/injection, schedule: Q04DX003 (ip), vehicle: saline with Tween-80 92 % of control | [6] 92 % of control | [7] 100 % of control

OCC1CSCN1 (stereo not drawn)
inactive: dose: 50.0 mg/kg/injection, schedule: Q04DX002 (ip), vehicle: saline 93 % of control | dose: 100.0 mg/kg/injection, schedule: Q04DX002 (ip), vehicle: saline 99 % of control and 101 % of control | dose: 200.0 mg/kg/injection, schedule: Q04DX002 (ip), vehicle: saline 101 % of control and 120 % of control | dose: 400.0 mg/kg/injection, schedule: Q04DX002 (ip), vehicle: saline 101 % of control and 104 % of control

Cc1cc(N)ncc1[N+](=O)[O-]
inactive: dose: 50.0 mg/kg/injection, schedule: Q01DX005 (ip), vehicle: saline with Tween-80 99 % of control | dose: 100.0 mg/kg/injection, schedule: Q01DX005 (ip), vehicle: saline with Tween-80 101 % of control | dose: 200.0 mg/kg/injection, schedule: Q01DX005 (ip), vehicle: saline with Tween-80 98 % of control

O=c1nc2[nH]c3c4cccc5cccc(c3nc2c(=O)[nH]1)c54
inactive: [13] 101 % of control and 108 % of control | [14] 101 % of control and 98 % of control | [3] 106 % of control and 110 % of control (2×) | [4] 108 % of control and 113 % of control and 124 % of control

CCn1c(N)c(C(=S)NC)c(=O)n(CC)c1=O
inactive: [8] 100 % of control | [9] 96 % of control

CSC(=O)NC(=Nc1ccccc1)NC(=O)c1ccccc1
inactive: [13] 90 % of control | [14] 93 % of control | [3] 91 % of control | [4] 88 % of control | [5] 89 % of control and 91 % of control

S=S1CC2(CSSC2)C1.[Cl][Hg][Cl]
inactive: dose: 7.5 mg/kg/injection, schedule: Q01DX009 (ip), vehicle: saline 111 % of control | dose: 15.0 mg/kg/injection, schedule: Q01DX009 (ip), vehicle: saline 117 % of control

CN(C)c1ccc(C2=C(c3ccccc3)C(=O)C3(c4ccccc4)CC23c2ccc(N(C)C)cc2)cc1 (stereo not drawn)
inactive: dose: 50.0 mg/kg/injection, schedule: Q01DX005 (ip), vehicle: Klucel + Tween-80 92 % of control | dose: 100.0 mg/kg/injection, schedule: Q01DX005 (ip), vehicle: Klucel + Tween-80 90 % of control | dose: 200.0 mg/kg/injection, schedule: Q01DX005 (ip), vehicle: Klucel + Tween-80 90 % of control

NC(=O)CCCCCBr
inactive: dose: 50.0 mg/kg/injection, schedule: Q01DX009 (ip), vehicle: Klucel (hydroxypropylcellulose) (HPC) 98 % of control | [1] 95 % of control | [2] 90 % of control

Nc1ccnc(F)n1
inactive: [10] 100 % of control | [11] 106 % of control | [12] 106 % of control

O=C1C(Cl)=C(Nc2ccc(C(=O)Nc3ccc4cc(S(=O)(=O)O)cc(S(=O)(=O)O)c4c3)cc2)C(=O)C(Cl)=C1Nc1ccc(C(=O)Nc2ccc3cc(S(=O)(=O)O)cc(S(=O)(=O)O)c3c2)cc1
inactive: [8] 110 % of control | [9] 89 % of control | dose: 200.0 mg/kg/injection, schedule: Q01DX009 (ip), vehicle: saline 103 % of control

COC(=O)C1=C(C(=O)OC)N2c3ccccc3-n3c(-c4ccccc4)cc(OC)c3C2(C)C(C(=O)OC)=C1C(=O)OC (stereo not drawn)
inactive: dose: 100.0 mg/kg/injection, schedule: Q01DX001 (ip), vehicle: saline with Tween-80 99 % of control | dose: 200.0 mg/kg/injection, schedule: Q01DX001 (ip), vehicle: saline with Tween-80 99 % of control | dose: 400.0 mg/kg/injection, schedule: Q01DX001 (ip), vehicle: saline with Tween-80 92 % of control

NC1(P(=O)(O)O)CCCCC1
inactive: [15] 116 % of control | [16] 111 % of control | [17] 111 % of control

COc1ccc2c(C)cc(N/N=C/c3ccccc3)nc2c1
inactive: [3] 89 % of control | [4] 98 % of control | [5] 98 % of control

Cc1cccc2c(=O)n3c(cc12)-c1[nH]c2ccccc2c1CC3
inactive: [10] 103 % of control | [11] 97 % of control | [12] 96 % of control

O=S1(c2ccccc2)=NC(Nc2ccccc2)=Nc2ccccc21 (stereo not drawn)
inactive: [15] 107 % of control | [16] 101 % of control | [17] 111 % of control
